Series [1] deals with human h5-HT2AR (Homo sapiens, UniProt P28223). In words: 5-HT-induced Cai2+ release assay in h5-HT2AR-CHO cells. Format: cell-based.
Series [2] concerns the target T1, CYP1A2 (Homo sapiens, UniProt P05177).
T1 sequence (P05177 1-516): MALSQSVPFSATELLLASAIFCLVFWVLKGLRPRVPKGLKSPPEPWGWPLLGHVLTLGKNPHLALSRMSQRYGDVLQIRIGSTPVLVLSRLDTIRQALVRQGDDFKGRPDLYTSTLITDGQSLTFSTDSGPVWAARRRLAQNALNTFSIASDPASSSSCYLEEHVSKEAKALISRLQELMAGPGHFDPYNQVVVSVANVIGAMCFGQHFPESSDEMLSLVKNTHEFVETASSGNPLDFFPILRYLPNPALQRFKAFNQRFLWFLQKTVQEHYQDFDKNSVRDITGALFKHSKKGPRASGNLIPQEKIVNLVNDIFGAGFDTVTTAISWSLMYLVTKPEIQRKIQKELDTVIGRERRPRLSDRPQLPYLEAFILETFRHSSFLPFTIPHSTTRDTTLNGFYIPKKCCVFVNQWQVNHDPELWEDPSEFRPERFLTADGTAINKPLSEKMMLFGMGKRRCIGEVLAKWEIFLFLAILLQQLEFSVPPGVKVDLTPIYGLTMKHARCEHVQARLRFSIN
Kind of series: CYP1A2 inhibition. Conditions: 10 μM.

Series [3] has as its target CYP3A4 (Homo sapiens, UniProt P08684). Kind of series: CYP3A4 inhibition. The settings on record: 10 μM.
For series [4], the target named is T2, human 5-HT2CR (unedited INI isoform) (Homo sapiens, UniProt P28335).
T2 sequence (P28335 33-458): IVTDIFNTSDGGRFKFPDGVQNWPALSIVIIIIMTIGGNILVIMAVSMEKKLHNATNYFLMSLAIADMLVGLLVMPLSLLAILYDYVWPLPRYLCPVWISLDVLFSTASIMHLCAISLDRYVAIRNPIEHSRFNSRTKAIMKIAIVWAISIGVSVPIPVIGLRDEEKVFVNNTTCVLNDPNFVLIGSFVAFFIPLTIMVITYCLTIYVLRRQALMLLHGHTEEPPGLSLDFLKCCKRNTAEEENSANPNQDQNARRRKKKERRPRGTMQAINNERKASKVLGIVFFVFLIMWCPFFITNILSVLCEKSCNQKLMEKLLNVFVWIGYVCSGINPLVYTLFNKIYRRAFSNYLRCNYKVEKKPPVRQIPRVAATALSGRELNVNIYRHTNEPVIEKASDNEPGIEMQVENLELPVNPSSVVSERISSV
Conditions: h5-HT2CR-CHO cells.

Series [5] addresses T3, α 1B (Homo sapiens, UniProt P35368).
T3 sequence (P35368 1-520): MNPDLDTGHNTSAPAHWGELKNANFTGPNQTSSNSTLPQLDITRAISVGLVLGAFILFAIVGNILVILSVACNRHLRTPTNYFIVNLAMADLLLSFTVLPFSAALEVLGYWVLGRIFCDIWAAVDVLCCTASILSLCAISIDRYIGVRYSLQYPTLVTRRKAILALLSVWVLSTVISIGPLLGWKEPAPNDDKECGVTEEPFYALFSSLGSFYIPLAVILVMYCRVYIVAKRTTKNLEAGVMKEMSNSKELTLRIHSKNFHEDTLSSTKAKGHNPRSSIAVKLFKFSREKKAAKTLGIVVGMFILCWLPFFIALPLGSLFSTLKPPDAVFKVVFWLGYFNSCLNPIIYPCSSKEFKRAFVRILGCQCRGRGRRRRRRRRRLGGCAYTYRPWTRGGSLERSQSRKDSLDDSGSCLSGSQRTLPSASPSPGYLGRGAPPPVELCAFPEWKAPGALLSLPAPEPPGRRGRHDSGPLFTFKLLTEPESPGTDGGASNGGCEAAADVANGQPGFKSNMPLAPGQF
In words: NIMH PDSP radioligand binding displacement, α 1B. Conditions: read-out: % inhibition (10 μM).

Series [6] relates to male Sprague–Dawley rats. Kind of series: WAY163909 versus saline two-lever drug discrimination assay. Format: in vivo, rat. Conditions: 12 alone 0.5–5 mg/kg ip.
The nature of series [7]: kinetic solubility. The settings on record: 2 h.
The nature of series [8]: rat liver microsomal clearance. The settings on record: microsomes.
The target of series [9] is CYP2C9 (Homo sapiens, UniProt P11712). Kind of series: CYP2C9 inhibition. Conditions: 10 μM.
Sequence of CYP2C9 (P11712 whole entry): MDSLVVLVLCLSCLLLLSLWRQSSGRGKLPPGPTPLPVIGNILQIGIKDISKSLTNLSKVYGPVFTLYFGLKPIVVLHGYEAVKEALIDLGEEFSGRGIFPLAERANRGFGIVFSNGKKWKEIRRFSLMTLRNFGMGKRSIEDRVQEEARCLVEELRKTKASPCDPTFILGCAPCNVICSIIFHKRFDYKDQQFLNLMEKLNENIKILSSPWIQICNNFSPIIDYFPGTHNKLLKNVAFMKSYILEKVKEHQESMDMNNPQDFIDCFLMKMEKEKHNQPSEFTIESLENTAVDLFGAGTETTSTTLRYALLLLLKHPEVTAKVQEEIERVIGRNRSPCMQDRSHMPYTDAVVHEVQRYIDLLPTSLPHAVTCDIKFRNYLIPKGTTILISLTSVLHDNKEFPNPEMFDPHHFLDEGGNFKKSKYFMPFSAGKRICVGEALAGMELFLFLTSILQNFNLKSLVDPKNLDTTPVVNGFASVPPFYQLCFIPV
Series [10] deals with CYP2C19 (Homo sapiens, UniProt P33261). In words: CYP2C19 inhibition. Conditions: 10 μM.
Sequence of CYP2C19 (P33261 whole entry): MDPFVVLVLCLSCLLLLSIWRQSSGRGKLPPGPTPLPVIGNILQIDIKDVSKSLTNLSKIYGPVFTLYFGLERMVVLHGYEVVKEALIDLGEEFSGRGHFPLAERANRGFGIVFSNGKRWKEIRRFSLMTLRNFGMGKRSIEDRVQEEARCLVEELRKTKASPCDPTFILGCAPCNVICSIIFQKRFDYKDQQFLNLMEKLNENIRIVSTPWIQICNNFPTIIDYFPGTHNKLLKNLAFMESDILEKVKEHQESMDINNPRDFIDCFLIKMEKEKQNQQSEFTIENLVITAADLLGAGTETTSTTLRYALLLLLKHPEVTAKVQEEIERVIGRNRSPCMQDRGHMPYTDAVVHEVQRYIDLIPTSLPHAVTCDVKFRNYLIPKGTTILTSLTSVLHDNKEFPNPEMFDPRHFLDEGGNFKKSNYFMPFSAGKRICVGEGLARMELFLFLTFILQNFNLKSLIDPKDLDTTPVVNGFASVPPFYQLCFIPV
Series [11] addresses CYP2D6 (Homo sapiens, UniProt P10635). In words: CYP2D6 inhibition. Conditions: 10 μM.

Entries after “also recorded” stand apart in the source; their conditions may differ. Some results are limits rather than exact numbers.

Sequence of human h5-HT2AR (P28223 whole entry): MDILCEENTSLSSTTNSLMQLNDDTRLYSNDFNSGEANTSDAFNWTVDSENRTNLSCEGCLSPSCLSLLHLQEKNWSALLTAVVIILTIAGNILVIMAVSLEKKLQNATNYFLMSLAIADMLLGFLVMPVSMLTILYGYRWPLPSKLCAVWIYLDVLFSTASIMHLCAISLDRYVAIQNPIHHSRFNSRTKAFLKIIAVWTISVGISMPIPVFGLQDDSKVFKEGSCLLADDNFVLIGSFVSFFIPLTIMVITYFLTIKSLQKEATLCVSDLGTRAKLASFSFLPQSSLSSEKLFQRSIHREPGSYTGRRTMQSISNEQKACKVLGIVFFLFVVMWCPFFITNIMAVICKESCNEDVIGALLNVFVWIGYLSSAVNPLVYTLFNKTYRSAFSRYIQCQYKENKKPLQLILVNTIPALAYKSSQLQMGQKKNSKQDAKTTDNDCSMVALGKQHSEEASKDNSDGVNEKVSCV
Sequence of CYP3A4 (P08684 whole entry, canonical isoform): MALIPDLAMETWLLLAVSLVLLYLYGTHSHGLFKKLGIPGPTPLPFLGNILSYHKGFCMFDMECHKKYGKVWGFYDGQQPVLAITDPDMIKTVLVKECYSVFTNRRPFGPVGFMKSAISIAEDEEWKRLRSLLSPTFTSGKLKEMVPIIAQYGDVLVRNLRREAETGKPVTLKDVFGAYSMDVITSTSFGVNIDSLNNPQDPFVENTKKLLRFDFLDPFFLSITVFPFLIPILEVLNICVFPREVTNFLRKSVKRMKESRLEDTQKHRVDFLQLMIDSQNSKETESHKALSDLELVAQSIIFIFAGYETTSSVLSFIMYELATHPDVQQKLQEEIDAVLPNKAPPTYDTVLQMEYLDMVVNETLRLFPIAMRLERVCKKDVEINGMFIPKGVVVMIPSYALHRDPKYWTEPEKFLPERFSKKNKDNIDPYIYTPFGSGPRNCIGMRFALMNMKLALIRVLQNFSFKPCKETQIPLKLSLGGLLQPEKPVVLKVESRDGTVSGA
Sequence of CYP2D6 (P10635 whole entry): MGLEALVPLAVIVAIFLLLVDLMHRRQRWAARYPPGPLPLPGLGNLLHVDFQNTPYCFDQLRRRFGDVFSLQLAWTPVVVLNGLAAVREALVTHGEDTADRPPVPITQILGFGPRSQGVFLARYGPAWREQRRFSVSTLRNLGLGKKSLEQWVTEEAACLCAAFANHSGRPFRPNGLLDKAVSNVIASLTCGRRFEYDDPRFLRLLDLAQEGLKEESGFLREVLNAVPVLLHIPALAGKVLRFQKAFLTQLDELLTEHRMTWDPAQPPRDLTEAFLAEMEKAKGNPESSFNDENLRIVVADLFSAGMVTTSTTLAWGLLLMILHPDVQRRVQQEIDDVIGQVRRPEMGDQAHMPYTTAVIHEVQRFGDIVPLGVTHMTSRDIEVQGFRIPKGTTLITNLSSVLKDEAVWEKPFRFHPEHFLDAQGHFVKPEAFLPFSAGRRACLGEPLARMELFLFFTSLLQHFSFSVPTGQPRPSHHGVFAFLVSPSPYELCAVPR

Turning to `O=C(NC[C@H](O)CO)[C@@H]1C[C@H](c2ccccc2)CCN1` (mixture of isomers) [Compound 12, (2,4-cis)-N-((S)-2,3-Dihydroxypropyl)-4-phenylpiperidine-2-carboxamide], in series [1], the “alteration of Emax or EC50 of 5-HT-induced Cai2+ release (in words)” value is “no alteration in the Emax or EC50; also recorded: inactive as an agonist or allosteric modulator”. Also, the CYP1A2 inhibition in series [2] is on record as 11.8% (10 μM). Also, in [3], the CYP3A4 inhibition is listed as 0.0% (10 μM). The “5-HT2CR positive allosteric modulator activity (in words)” value in [4] (1 nM, 5-HT-induced Cai2+ release) is “significant PAM activity”. Also, the “intrinsic agonist activity to induce Cai2+ release prior to addition of 5-HT” value in series [4] (compound added 15 min before 5-HT) is given as “did not exhibit intrinsic activity”. For the same molecule, in series [5], the inhibition – broadly, the change of the read-out against control, counted positive when it falls – at 10 µM was -11%. Further, the “response rates (in words)” value in series [6] is “no change in response rates”. In addition, the “substitution for WAY163909 (lever responding, in words)” value in series [6] (30 min prior to testing) is recorded as “evoked saline lever responding”. In addition, in [7], the “kinetic solubility (PBS; pH 7.4)” value is listed as “highly soluble”. Further, in [8], the intrinsic clearance (microsomal CLint) (commonly a measure of how fast metabolising enzymes remove a compound, apart from limits set by blood flow) at 10 μM was less than 9.6 µL/min/mg. For the same molecule, the CYP2C9 inhibition in series [9] is 0.0% (10 μM). Also, the CYP2C19 inhibition in series [10] is listed as 0.0% (10 μM). Also, in series [11], the CYP2D6 inhibition was 1.9% (10 μM).
